Test results: patent publication US12564598B2, “Nitric oxide-sensitive hydrogel” (POSTECH RESEARCH AND BUSINESS DEVELOPMENT FOUNDATION, priority 2021, dated 2026)

Assay: Degradation of crosslinking agent after incubation in saturated NO solution (1H NMR, FT-IR, UV-Vis)
Format: physicochemical
Conditions: incubation in a saturated NO solution; primary amine peak disappeared, benzotriazole formed
From the text: The mechanism by which the above synthesized crosslinking agent DA-NOCCL reacts with nitric oxide to degrade and the ^1H NMR, FT-IR, and UV-Vis absorption data confirming this are shown in FIGS. 4 and 5.

C#CCCC(=O)Nc1ccc(NC(=O)CCC#C)c(N)c1 [DA-NOCCL]
degradation in response to NO: can be degraded in response to NO
